Test results taken from US20230203021A1, “GLP-1 RECEPTOR AGONIST, PHARMACEUTICAL COMPOSITION COMPRISING SAME, AND METHOD FOR PREPARING SAME” (LG CHEM, LTD., priority 2020, published 2023).
pEC50: −log10 of the molar value.

These compounds were tested against T1, hGLP-1R (Homo sapiens, UniProt P43220) (assay: Measurement of activity of GLP-1R agonist (cell-based luciferase assay), CHO-K1/hGLP-1R/CRE-luciferase cell line). Details: GLP-1R activity; CHO-K1/hGLP-1R/CRE-luciferase cells, 9 concentrations, four hours of incubation, Bright-Glo luminescence.
T1 construct: expressed in transfected cells; host or cells: CHO-K1
T1 sequence (P43220 24-463): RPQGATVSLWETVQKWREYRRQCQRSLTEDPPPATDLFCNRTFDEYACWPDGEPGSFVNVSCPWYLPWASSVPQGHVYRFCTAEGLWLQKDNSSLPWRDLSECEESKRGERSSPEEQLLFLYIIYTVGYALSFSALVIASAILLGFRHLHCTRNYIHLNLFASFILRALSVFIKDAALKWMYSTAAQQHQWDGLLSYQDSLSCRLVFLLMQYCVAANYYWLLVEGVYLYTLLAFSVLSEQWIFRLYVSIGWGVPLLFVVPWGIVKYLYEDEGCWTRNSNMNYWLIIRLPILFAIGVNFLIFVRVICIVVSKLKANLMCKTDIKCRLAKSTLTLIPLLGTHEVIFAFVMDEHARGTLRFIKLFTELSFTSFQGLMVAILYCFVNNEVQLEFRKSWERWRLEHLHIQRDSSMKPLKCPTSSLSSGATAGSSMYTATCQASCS
Experimental: 15,000 cells of a CHO-K1/hGLP-1R/CRE-luciferase cell line were seeded in a 96-well plate. A medium used herein was Ham’s F-12 Nutrient medium. The cells were incubated for 18 hours in a 5% CO2 incubator which was maintained at 37° C., and then treated with drugs. Each drug dispensed at 9 different concentrations was dissolved in a DMEM/F-12 + 1% FBS medium, and the cell line was treated with each of 100 µl thereof. After four hours of incubation, a Bright-Glo® luciferase assay system kit was used to add 30 µl of an assay reagent per well. A plate was stored at room temperature for 15 minutes, and then luminescence was measured using a SpectraMax M5 reader.
With O=C(O)c1ccc2nc(Oc3ccc(-c4cccc(OCc5ccc(Cl)cc5F)n4)cc3F)n(C[C@@H]3CCCO3)c2c1 [Example 31, (S)-2-(4-(6-((4-chloro-2-fluorobenzyl)oxy)pyridin-2-yl)-2-fluorophenoxy)-1-((tetrahydrofuran-2-yl)methyl)-1H-benzo[d]imidazole-6-carboxylic acid] the pEC50 was less than 7.10.
Work on O=C(O)c1ccc2nc(Oc3ccc(-c4cccc(OCc5ccc(Cl)cc5F)n4)cc3Cl)n(C[C@@H]3CCCO3)c2c1 [Example 32, (S)-2-(2-chloro-4-(6-((4-chloro-2-fluorobenzyl)oxy)pyridin-2-yl)phenoxy)-1-((tetrahydrofuran-2-yl)methyl)-1H-benzo[d]imidazole-6-carboxylic acid] yielded a pEC50 of 8.47.
For O=C(O)c1ccc2nc(Cc3ccc(-c4cccc(OCc5ccc(Cl)cc5F)n4)cc3)n(C[C@H]3CCOC3)c2c1 [Example 33, (R)-2-(4-(6-((4-chloro-2-fluorobenzyl)oxy)pyridin-2-yl)benzyl)-1-((tetrahydrofuran-3-yl)methyl)-1H-benzo[d]imidazole-6-carboxylic acid], the pEC50 was 9.44.
O=C(O)c1ccc2nc(Cc3ccc(-c4cccc(OCc5ccc(Cl)cc5F)n4)c(Cl)c3)n(C[C@@H]3CCCO3)c2c1 [Example 34, (S)-2-(3-chloro-4-(6-((4-chloro-2-fluorobenzyl)oxy)pyridin-2-yl)benzyl)-1-((tetrahydrofuran-2-yl)methyl)-1H-benzo[d]imidazole-6-carboxylic acid] gave a pEC50 of 10.06.
In the case of O=C(O)c1ccc2nc(Cc3ccc(-c4cccc(OCc5ccc(Cl)cc5F)n4)cc3)n(C[C@@H]3CCOC3)c2c1 [Example 35, (S)-2-(4-(6-((4-chloro-2-fluorobenzyl)oxy)pyridin-2-yl)benzyl)-1-((tetrahydrofuran-3-yl)methyl)-1H-benzo[d]imidazole-6-carboxylic acid], the pEC50 was 9.11.
Compound O=C(O)c1ccc2nc(Cc3ccc(-c4cccc(OCc5ccc(C(F)(F)F)cc5F)n4)cc3)n(C[C@@H]3CCOC3)c2c1 [Example 36, (S)-2-(4-(6-((2-fluoro-4-(trifluoromethyl)benzyl)oxy)pyridin-2-yl)benzyl)-1-((tetrahydrofuran-3-yl)methyl)-1H-benzo[d]imidazole-6-carboxylic acid] has a pEC50 of 8.68.
O=C(O)c1ccc2nc(Cc3ccc(-c4cccc(OCc5ccc(Cl)cc5F)n4)c(Cl)c3)n(C[C@@H]3CCOC3)c2c1 [Example 37, (S)-2-(3-chloro-4-(6-((4-chloro-2-fluorobenzyl)oxy)pyridin-2-yl)benzyl)-1-((tetrahydrofuran-3-yl)methyl)-1H-benzo[d]imidazole-6-carboxylic acid] was tested, and the pEC50 was 8.87.
